Values quoted from earlier work as cited in US20070065511A1, “Controlled delivery creatine formulations and method of using the same” (priority 2004, published 2007).
Read-outs that look alike come from different tables or passages of the source.

Columns and labels:
[1] = ingestion of 20 to 30 g per day for several days

Row | SMILES | SC/fibre, time effect from baseline (satellite cell (SC); week 4 of supplementation and resistance training) [%] | SC/fibre, time effect from baseline (satellite cell (SC); week 8 of supplementation and resistance training) [%] | SC/fibre compared to baseline (satellite cell (SC); week 16) | increase in human skeletal muscle total creatine content [1]
1 | CN(CC(=O)O)C(=N)N [CRE, creatine] | 111 | 93 | no difference | 
2 | CN(CC(=O)O)C(=N)N.O [creatine monohydrate] |  |  |  | greater than 20%
